Experimental data as given in ChEMBL document CHEMBL4325841, “5-(4-Hydroxyphenyl)-3H-1,2-dithiole-3-thione-based fibrates as potential hypolipidemic and hepatoprotective agents” (2018).
The source made the active and inactive calls. The rule behind the calls is not given here.

Assays:
Mus musculus [1] = experiment: Hepatoprotective activity in high fat diet-induced hyperlipidemic mouse model assessed as reduction in ALT level at 13 mg/kg, po administered for last 30 days during 60 days of high fat diet feeding relative to control; type: functional
Mus musculus [2] = experiment: Antihyperlipidemic activity in high fat diet-induced hyperlipidemic mouse model assessed as LDL level at 13 mg/kg, po administered for last 30 days during 60 days of high fat diet feeding relative to control; type: functional
Mus musculus [3] = experiment: Hepatoprotective activity in high fat diet-induced hyperlipidemic mouse model assessed as inhibition of lipid accumulation at 13 mg/kg, po administered for last 30 days during 60 days of high fat diet feeding by oil-red O staining-based microscopic analysis; type: functional, organism-based
Mus musculus [4] = experiment: Antihyperlipidemic activity in high fat diet-induced hyperlipidemic mouse model assessed as reduction in serum triglyceride level at 13 mg/kg, po administered for last 30 days during 60 days of high fat diet feeding relative to control; type: functional
Mus musculus [5] = species: Mus musculus; experiment: animal or person; type: functional; settings: po
Description: Antihyperlipidemic activity in high fat diet-induced hyperlipidemic mouse model assessed as reduction in atherosclerosis index at 13 mg/kg, po administered for last 30 days during 60 days of high fat diet feeding relative to control

Mus musculus [6] = experiment: Hepatoprotective activity in high fat diet-induced hyperlipidemic mouse model assessed as decrease in inflammatory cell infiltration at 13 mg/kg, po administered for last 30 days during 60 days of high fat diet feeding by H and E staining-based microscopic analysis; type: functional, organism-based
Mus musculus [7] = experiment: Antihyperlipidemic activity in Triton WR-1339-induced hyperlipidemic mouse model assessed as decrease in serum MDA level at 13 mg/kg, po for 7 days and co-treated with Triton WR-1339 on day 6; type: functional, organism-based
Mus musculus [8] = experiment: Hepatoprotective activity in high fat diet-induced hyperlipidemic mouse model assessed as decrease in tissue hemorrhage at 13 mg/kg, po administered for last 30 days during 60 days of high fat diet feeding by H and E staining-based microscopic analysis; type: functional, organism-based
Mus musculus [9] = experiment: In vivo anti-inflammatory activity in high fat diet-induced hyperlipidemic mouse model assessed as reduction in TNF-alpha level at 13 mg/kg, po administered for last 30 days during 60 days of high fat diet feeding relative to control; type: functional
Mus musculus [10] = experiment: Hepatoprotective activity in high fat diet-induced hyperlipidemic mouse model assessed as reduction in AST level at 13 mg/kg, po administered for last 30 days during 60 days of high fat diet feeding relative to control; type: functional
Mus musculus [11] = experiment: Antihyperlipidemic activity in high fat diet-induced hyperlipidemic mouse model assessed as increase in HDL level at 13 mg/kg, po administered for last 30 days during 60 days of high fat diet feeding relative to control; type: functional
Mus musculus [12] = experiment: Antioxidant activity in high fat diet-induced hyperlipidemic mouse model assessed as increase in GSH-PX level at 13 mg/kg, po administered for last 30 days during 60 days of high fat diet feeding relative to control; type: functional
Mus musculus [13] = experiment: Antihyperlipidemic activity in high fat diet-induced hyperlipidemic mouse model assessed as reduction in total cholesterol level at 13 mg/kg, po administered for last 30 days during 60 days of high fat diet feeding relative to control; type: functional
Mus musculus [14] = experiment: Antihyperlipidemic activity in Triton WR-1339-induced hyperlipidemic mouse model assessed as decrease in serum triglyceride level at 13 mg/kg, po for 7 days and co-treated with Triton WR-1339 on day 6; type: functional, organism-based
Mus musculus [15] = experiment: Antioxidant activity in high fat diet-induced hyperlipidemic mouse model assessed as reduction in MDA level at 13 mg/kg, po administered for last 30 days during 60 days of high fat diet feeding relative to control; type: functional
Mus musculus [16] = experiment: Antioxidant activity in high fat diet-induced hyperlipidemic mouse model assessed as increase in SOD level at 13 mg/kg, po administered for last 30 days during 60 days of high fat diet feeding relative to control; type: functional
Mus musculus [17] = experiment: Antihyperlipidemic activity in Triton WR-1339-induced hyperlipidemic mouse model assessed as decrease in total cholesterol level at 13 mg/kg, po for 7 days and co-treated with Triton WR-1339 on day 6; type: functional, organism-based
Mus musculus [18] = experiment: In vivo anti-inflammatory activity in high fat diet-induced hyperlipidemic mouse model assessed as reduction in IL-6 level at 13 mg/kg, po administered for last 30 days during 60 days of high fat diet feeding relative to control; type: functional

## CCOC(=O)CCCCCOc1ccc(-c2cc(=S)ss2)cc1
Mus musculus [1]
  inhibition in vivo at 13 mg/kg: 8.2%
Mus musculus [2]
  inhibition in vivo at 13 mg/kg: 30.7%
Mus musculus [3]
  Activity: Active
Mus musculus [4]
  inhibition in vivo at 13 mg/kg: 29.4%
Mus musculus [5]
  inhibition in vivo at 13 mg/kg: 40.1%
Mus musculus [6]
  Activity: Active
Mus musculus [7]
  Activity: Active
Mus musculus [8]
  Activity: Active
Mus musculus [9]
  inhibition in vivo at 13 mg/kg: 31.8%
Mus musculus [10]
  inhibition in vivo at 13 mg/kg: 31.5 to 39%
Mus musculus [11]
  Activity: 21.4%
Mus musculus [12]
  Activity: 19.2%
Mus musculus [13]
  inhibition in vivo at 13 mg/kg: 12.5%
Mus musculus [14]
  Activity: Active
Mus musculus [15]
  inhibition in vivo at 13 mg/kg: 10.1%
Mus musculus [16]
  Activity: 10.8%
Mus musculus [17]
  Activity: Active
Mus musculus [18]
  inhibition in vivo at 13 mg/kg: 18.4%

## CCOC(=O)C(C)Oc1ccc(-c2cc(=S)ss2)cc1 (stereo not given)
Mus musculus [7]
  Activity: Active
Mus musculus [14]
  Activity: Active

## CC(C)OC(=O)C(C)(C)Oc1ccc(C(=O)c2ccc(Cl)cc2)cc1 [FENOFIBRATE]
Mus musculus [7]
  Activity: Active
Mus musculus [11]
  Activity: 19.4%
Mus musculus [12]
  Activity: 9.9%
Mus musculus [14]
  Activity: Active
Mus musculus [16]
  Activity: 10.9%
Mus musculus [17]
  Activity: inactive

## CCOC(=O)CCCCOc1ccc(-c2cc(=S)ss2)cc1
Mus musculus [7]
  Activity: Active
Mus musculus [14]
  Activity: Active
Mus musculus [17]
  Activity: Active

## CCOC(=O)CCCCCCOc1ccc(-c2cc(=S)ss2)cc1
Mus musculus [7]
  Activity: Active
Mus musculus [14]
  Activity: Active
Mus musculus [17]
  Activity: Active

## CCOC(=O)C(CC)Oc1ccc(-c2cc(=S)ss2)cc1 (stereo not given)
Mus musculus [7]
  Activity: Active
Mus musculus [14]
  Activity: Active

## CCOC(=O)COc1ccc(-c2cc(=S)ss2)cc1
Mus musculus [7]
  Activity: Active
Mus musculus [14]
  Activity: Active

## CCOC(=O)C(C)(C)Oc1ccc(-c2cc(=S)ss2)cc1
Mus musculus [7]
  Activity: Active
Mus musculus [14]
  Activity: Active

## COc1ccc(-c2cc(=S)ss2)cc1
Mus musculus [14]
  Activity: inactive
Mus musculus [17]
  Activity: inactive
